Results reported in ChEMBL document CHEMBL1240489, “Discovery of N-{1-[3-(3-oxo-2,3-dihydrobenzo[1,4]oxazin-4-yl)propyl]piperidin-4-yl}-2-phenylacetamide (Lu AE51090): an allosteric muscarinic M1 receptor agonist with unprecedented selectivity and procognitive potential” (J Med Chem, 2010).
Calls of active or inactive are those of the source. No cut-off for these calls is given here.

Key:
[1] = target: Muscarinic acetylcholine receptor M3 (Homo sapiens, UniProt P20309); assay: Agonist activity at human muscarinic M3 receptor expressed in BHK-21 cells assessed as increase of acetylcholine-induced calcium flux at 10 uM by FLIPR assay relative to acetylcholine; assay type: functional, cell-based
Muscarinic acetylcholine receptor M3, sequence (P20309 whole entry, looked up): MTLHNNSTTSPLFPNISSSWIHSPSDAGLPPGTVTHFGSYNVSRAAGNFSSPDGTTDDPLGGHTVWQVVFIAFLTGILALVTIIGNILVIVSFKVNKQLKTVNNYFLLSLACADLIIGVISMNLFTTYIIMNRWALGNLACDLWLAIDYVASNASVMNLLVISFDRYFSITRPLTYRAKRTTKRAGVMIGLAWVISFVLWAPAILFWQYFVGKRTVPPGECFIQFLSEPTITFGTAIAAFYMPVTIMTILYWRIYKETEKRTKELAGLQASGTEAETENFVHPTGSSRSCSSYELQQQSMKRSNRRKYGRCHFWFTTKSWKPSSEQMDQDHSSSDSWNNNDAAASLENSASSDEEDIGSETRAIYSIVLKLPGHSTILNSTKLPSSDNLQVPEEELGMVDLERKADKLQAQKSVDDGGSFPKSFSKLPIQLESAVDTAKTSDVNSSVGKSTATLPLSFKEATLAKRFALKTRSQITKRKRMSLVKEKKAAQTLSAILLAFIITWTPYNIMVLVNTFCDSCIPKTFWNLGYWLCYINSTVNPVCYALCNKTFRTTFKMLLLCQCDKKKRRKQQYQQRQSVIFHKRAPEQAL

[2] = target: T1, Muscarinic acetylcholine receptor M4 (Homo sapiens) (UniProt P08173); assay: Agonist activity at human muscarinic M4 receptor expressed in BHK-21 cells coexpressing Galpha16 subunit assessed as increase of acetylcholine-induced calcium flux at 10 uM by FLIPR assay relative to acetylcholine; assay type: functional, cell-based
T1 sequence (whole entry): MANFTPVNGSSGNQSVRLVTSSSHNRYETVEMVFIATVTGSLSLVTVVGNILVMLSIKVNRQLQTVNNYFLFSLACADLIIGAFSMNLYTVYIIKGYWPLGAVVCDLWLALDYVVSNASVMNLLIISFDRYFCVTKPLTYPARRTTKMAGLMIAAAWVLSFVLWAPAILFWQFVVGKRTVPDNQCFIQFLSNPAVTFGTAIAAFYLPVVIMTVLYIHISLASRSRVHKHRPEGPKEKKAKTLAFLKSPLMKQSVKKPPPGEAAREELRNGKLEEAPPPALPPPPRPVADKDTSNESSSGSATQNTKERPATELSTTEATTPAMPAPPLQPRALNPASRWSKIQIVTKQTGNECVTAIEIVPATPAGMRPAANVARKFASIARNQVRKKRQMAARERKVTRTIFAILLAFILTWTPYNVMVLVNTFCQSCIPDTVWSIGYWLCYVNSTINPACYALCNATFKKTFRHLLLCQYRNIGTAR

[3] = Protein binding in rat plasma at 0.1 uM after 60 mins by LC/MS-MS analysis; assay type: ADME, cell-free; details: read-out: PPB (converted)
Homo sapiens = species: Homo sapiens; assay: Hepatic blood flow in human; assay type: ADME, organism-based, Liver
[4] = Clearance in rat plasma at 1 mg/kg, iv and 2 mg/kg, po; assay type: ADME, organism-based
[5] = Terminal half life in rat plasma at 1 mg/kg, iv and 2 mg/kg, po; assay type: ADME, organism-based
Mus musculus = assay: Reversal of 60 seconds delay-induced memory decay in C57Bl/6J mouse assessed as positive alteration at 10 to 20 mg/kg, sc for 1 week by Y-maze test; assay type: functional, organism-based
[6] = Drug level in C57/6J mouse brain at 20 mg/kg, sc after 60 mins; assay type: ADME, organism-based; design: dose 20 mg/kg, route subcutaneous; details: read-out: Activity
D(1A) dopamine receptor = D(1A) dopamine receptor (Homo sapiens, UniProt P21728); assay: Binding affinity to human dopamine D1 receptor by radioligand displacement assay
[7] = target: Beta-1 adrenergic receptor (Homo sapiens, UniProt P08588); assay: Binding affinity to human adrenergic beta-1 receptor by radioligand displacement assay
Beta-1 adrenergic receptor, sequence (P08588 whole entry): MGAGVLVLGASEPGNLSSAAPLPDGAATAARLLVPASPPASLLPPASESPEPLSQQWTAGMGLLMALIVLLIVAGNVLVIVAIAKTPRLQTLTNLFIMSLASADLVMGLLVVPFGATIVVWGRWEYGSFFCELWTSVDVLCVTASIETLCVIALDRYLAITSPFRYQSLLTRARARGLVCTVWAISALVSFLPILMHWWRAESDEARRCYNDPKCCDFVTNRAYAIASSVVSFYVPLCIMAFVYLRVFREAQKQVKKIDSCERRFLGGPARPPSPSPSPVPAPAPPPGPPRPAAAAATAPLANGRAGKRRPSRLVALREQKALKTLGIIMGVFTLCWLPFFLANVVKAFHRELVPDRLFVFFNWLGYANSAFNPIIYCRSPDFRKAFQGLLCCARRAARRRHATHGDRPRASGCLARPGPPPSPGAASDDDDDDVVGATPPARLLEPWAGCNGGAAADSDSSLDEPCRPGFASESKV

[8] = target: 5-hydroxytryptamine receptor 2B (Homo sapiens, UniProt P41595); assay: Binding affinity to human 5-HT2B agonist site receptor by radioligand displacement assay
5-hydroxytryptamine receptor 2B, sequence (P41595 whole entry): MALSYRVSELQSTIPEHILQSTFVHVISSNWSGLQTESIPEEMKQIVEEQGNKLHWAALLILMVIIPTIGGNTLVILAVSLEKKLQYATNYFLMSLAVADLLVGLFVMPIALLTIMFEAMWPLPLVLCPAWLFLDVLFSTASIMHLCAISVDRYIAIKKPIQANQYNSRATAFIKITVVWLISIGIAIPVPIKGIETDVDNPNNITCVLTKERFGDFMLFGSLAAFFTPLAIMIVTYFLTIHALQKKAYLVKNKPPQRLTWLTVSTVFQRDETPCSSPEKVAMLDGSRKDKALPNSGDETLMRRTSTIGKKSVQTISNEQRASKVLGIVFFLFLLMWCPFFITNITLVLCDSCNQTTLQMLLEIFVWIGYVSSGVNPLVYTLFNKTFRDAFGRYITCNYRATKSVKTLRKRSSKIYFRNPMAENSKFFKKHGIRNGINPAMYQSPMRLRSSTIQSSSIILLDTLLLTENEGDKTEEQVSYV

Histamine H1 receptor = Histamine H1 receptor (Homo sapiens, UniProt P35367); assay: Binding affinity to human histamine H1 receptor by radioligand displacement assay
Histamine H1 receptor, sequence (P35367 whole entry): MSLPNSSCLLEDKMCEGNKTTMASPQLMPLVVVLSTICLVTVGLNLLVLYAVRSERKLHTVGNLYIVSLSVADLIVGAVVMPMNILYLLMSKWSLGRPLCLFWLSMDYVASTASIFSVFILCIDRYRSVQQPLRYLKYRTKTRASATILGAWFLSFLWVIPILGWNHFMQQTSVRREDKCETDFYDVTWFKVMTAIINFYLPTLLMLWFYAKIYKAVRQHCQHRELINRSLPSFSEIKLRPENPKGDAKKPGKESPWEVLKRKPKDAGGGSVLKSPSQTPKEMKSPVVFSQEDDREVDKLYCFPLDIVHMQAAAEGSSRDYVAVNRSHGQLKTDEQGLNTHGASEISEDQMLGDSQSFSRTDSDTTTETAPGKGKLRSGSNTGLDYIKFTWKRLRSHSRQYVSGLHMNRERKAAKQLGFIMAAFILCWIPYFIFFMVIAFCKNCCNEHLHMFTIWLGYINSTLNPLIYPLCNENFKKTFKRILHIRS

[9] = Binding affinity to NMDA receptor PCP binding site by radioligand displacement assay
[10] = Binding affinity to sigma receptor by radioligand displacement assay
D(2) dopamine receptor = D(2) dopamine receptor (Homo sapiens, UniProt P14416); assay: Binding affinity to human D2S agonist site receptor by radioligand displacement assay
D(2) dopamine receptor, sequence (P14416 whole entry): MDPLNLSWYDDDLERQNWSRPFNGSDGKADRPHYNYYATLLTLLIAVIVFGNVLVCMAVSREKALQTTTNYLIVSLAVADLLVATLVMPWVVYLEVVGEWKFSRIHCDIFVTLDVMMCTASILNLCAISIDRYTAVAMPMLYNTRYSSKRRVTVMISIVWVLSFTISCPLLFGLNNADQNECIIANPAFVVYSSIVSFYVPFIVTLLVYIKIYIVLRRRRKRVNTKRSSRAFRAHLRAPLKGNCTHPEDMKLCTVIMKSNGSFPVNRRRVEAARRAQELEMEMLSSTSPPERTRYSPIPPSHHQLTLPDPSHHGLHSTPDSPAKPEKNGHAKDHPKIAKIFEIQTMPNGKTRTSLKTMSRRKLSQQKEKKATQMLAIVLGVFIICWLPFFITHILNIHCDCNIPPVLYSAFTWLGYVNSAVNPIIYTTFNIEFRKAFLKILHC

Endothelin-1 receptor = Endothelin-1 receptor (Homo sapiens, UniProt P25101); assay: Binding affinity to human ETA receptor by radioligand displacement assay
Endothelin-1 receptor, sequence (P25101 whole entry): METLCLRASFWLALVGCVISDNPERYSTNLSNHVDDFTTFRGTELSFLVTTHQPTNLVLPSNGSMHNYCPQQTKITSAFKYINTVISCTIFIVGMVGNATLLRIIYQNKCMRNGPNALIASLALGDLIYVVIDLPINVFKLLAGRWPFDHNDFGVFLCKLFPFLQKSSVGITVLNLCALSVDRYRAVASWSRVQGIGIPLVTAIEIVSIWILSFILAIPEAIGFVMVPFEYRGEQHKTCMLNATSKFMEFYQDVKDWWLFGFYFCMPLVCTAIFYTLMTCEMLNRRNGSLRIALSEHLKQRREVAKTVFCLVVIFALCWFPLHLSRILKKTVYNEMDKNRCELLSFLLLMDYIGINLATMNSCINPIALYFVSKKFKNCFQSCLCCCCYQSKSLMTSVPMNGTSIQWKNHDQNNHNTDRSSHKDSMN

[11] = target: T2, Muscarinic acetylcholine receptor M1 (Homo sapiens, UniProt P11229); assay: Binding affinity to human muscarinic M1 receptor by radioligand displacement assay
T2 sequence (P11229 whole entry): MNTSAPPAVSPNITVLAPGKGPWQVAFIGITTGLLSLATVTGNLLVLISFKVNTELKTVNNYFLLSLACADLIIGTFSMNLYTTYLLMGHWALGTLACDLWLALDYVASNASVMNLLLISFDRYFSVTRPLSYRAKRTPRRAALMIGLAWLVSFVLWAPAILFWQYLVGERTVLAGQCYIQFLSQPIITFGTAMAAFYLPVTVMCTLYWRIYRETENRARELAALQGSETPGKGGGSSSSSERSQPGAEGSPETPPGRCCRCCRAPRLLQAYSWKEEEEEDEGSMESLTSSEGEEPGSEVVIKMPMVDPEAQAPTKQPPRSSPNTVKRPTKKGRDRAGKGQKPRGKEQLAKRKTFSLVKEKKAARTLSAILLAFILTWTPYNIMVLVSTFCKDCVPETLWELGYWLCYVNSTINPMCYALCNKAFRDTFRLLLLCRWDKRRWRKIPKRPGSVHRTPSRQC

[12] = target: T3, Muscarinic acetylcholine receptor M2 (Homo sapiens, UniProt P08172); assay: Binding affinity to human muscarinic M2 receptor by radioligand displacement assay
T3 sequence (P08172 whole entry): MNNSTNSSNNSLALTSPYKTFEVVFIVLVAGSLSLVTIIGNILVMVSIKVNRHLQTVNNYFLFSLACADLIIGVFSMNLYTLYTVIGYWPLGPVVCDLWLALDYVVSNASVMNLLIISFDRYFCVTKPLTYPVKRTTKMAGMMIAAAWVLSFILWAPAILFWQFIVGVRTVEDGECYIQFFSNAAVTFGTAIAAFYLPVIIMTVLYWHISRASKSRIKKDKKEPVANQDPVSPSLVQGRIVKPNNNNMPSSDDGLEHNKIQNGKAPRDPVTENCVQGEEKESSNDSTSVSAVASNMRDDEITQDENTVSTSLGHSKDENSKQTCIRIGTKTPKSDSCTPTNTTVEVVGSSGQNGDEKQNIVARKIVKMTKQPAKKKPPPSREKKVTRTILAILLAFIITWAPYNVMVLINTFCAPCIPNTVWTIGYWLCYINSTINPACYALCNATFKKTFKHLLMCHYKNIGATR

[13] = target: Alpha-2B adrenergic receptor (Homo sapiens, UniProt P18089); assay: Binding affinity to adrenergic alpha2B receptor by radioligand displacement assay
D(3) dopamine receptor = D(3) dopamine receptor (Homo sapiens, UniProt P35462); assay: Binding affinity to human dopamine D3 receptor by radioligand displacement assay
D(3) dopamine receptor, sequence (P35462 whole entry): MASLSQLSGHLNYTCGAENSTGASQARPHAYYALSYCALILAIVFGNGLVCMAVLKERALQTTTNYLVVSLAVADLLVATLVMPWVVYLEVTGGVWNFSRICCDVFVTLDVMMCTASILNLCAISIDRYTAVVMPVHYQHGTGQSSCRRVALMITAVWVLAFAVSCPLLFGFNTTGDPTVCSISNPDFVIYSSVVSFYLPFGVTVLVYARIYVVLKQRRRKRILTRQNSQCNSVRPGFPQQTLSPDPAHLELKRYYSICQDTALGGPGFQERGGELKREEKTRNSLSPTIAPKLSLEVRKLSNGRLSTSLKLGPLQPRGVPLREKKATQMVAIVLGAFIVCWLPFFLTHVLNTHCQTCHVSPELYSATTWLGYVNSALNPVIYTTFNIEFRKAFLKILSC

[14] = target: Beta-2 adrenergic receptor (Homo sapiens, UniProt P07550); assay: Binding affinity to adrenergic beta2 receptor by radioligand displacement assay
Beta-2 adrenergic receptor, sequence (P07550 whole entry): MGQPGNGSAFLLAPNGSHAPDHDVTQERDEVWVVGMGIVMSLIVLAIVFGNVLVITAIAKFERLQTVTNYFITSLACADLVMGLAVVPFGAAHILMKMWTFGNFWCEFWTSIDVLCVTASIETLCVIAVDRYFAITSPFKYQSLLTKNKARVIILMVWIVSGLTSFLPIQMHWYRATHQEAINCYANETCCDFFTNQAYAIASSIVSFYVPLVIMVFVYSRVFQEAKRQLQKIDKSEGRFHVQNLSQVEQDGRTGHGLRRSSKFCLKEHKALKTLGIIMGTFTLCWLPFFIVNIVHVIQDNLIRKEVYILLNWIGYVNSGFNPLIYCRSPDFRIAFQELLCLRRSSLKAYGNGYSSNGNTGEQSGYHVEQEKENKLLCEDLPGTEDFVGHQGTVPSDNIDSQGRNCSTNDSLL

[15] = target: Neuropeptide Y receptor type 1 (Homo sapiens, UniProt P25929); assay: Binding affinity to human neuropeptide Y1 receptor by radioligand displacement assay
Neuropeptide Y receptor type 1, sequence (P25929 whole entry): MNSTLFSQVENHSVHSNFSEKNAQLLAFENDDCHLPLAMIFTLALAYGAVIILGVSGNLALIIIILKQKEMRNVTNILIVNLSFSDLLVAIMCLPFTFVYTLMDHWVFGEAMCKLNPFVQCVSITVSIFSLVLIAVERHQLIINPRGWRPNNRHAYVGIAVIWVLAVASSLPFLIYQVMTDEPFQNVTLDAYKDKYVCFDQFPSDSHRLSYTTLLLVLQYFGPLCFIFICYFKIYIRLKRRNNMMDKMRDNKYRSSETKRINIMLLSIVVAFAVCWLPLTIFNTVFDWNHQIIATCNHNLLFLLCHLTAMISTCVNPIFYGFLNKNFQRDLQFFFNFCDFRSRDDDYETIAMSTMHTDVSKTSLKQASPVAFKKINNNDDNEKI

[16] = target: 5-hydroxytryptamine receptor 1B (Homo sapiens, UniProt P28222); assay: Binding affinity to 5-HT1B receptor by radioligand displacement assay
5-hydroxytryptamine receptor 1B, sequence (P28222 whole entry): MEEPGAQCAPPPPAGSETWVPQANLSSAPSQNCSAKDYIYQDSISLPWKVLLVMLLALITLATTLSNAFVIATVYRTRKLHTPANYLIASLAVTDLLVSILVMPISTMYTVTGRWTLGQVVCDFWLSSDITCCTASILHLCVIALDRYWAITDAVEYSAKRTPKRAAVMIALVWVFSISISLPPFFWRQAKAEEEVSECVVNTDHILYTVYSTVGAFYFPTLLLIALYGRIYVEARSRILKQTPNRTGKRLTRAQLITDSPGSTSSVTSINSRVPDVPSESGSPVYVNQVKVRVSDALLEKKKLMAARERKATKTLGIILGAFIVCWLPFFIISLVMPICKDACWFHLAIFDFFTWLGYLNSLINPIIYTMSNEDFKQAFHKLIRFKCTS

[17] = Binding affinity to Ca2+ channel by radioligand displacement assay
Adenosine receptor A3 = Adenosine receptor A3 (Homo sapiens, UniProt P0DMS8); assay: Binding affinity to human adenosine A3 receptor by radioligand displacement assay
Adenosine receptor A3, sequence (P0DMS8 whole entry): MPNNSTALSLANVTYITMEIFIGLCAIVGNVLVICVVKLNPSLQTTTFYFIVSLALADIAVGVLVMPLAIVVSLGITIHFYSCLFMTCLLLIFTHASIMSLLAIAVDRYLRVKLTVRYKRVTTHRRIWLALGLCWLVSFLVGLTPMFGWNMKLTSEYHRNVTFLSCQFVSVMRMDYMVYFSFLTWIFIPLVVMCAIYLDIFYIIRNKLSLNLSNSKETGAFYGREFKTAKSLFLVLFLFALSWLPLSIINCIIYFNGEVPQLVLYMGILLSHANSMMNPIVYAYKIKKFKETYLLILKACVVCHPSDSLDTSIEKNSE

[18] = target: T2, Muscarinic acetylcholine receptor M1
[19] = Binding affinity to PDE5 by enzyme assay

Q: For O=C(Cc1ccccc1)NC1CCN(CCCN2C(=O)COc3ccccc32)CC1, which Emax [1] is on record?
A: 1%

Q: What about the Emax [2] of the same compound?
A: 6%

Q: And the fraction unbound at 1 h, 0.1 µM [3]?
A: 0.48

Q: And the QH (Homo sapiens)?
A: 1.4 L/min

Q: What about the clearance [4] of the same compound?
A: 83.3 mL/min/kg

Q: What about the half-life [5] of the same compound?
A: 48 min

Q: What about the Activity (Mus musculus) of the same compound?
A: Active

Q: And the concentration at 1 h [6]?
A: 240 ng/g

Q: What about the Ki (D(1A) dopamine receptor) of the same compound?
A: ≥ 1000 nM

Q: And the Ki [7]?
A: ≥ 1000 nM

Q: And the Ki [8]?
A: ≥ 1000 nM

Q: And the Ki (Histamine H1 receptor)?
A: 780 nM

Q: What about the Ki [9] of the same compound?
A: ≥ 1000 nM

Q: What about the Ki [10] of the same compound?
A: ≥ 1000 nM

Q: And the Ki (D(2) dopamine receptor)?
A: ≥ 1000 nM

Q: What about the Ki (Endothelin-1 receptor) of the same compound?
A: ≥ 1000 nM

Q: And the Ki [11]?
A: ≥ 1000 nM

Q: What about the Ki [12] of the same compound?
A: ≥ 1000 nM

Q: And the Ki [13]?
A: ≥ 1000 nM

Q: And the Ki (D(3) dopamine receptor)?
A: ≥ 1000 nM

Q: What about the Ki [14] of the same compound?
A: ≥ 1000 nM

Q: What about the Ki [15] of the same compound?
A: ≥ 1000 nM

Q: And the Ki [16]?
A: ≥ 1000 nM

Q: And the Ki [17]?
A: ≥ 1000 nM

Q: And the Ki (Adenosine receptor A3)?
A: ≥ 1000 nM

Q: What about the EC50 [18] of the same compound?
A: 61 nM

Q: What about the Ki [19] of the same compound?
A: ≥ 1000 nM
